Measurements reported in patent US8210776B2, “Calcification method using calcifying bacteria” (Soletanche Freyssinet, priority 2007, dated 2012).

Experiments:
[1] = tested on: Sporosarcina pasteurii—CIP 66.21 Pasteur; test: Degree of attachment in sand columns, chicory and/or divalent ion salt added before injection (Example 4); assay type: cell-based; conditions: 10 mM Ca(NO3)2 added to the culture medium; 20° C.
Description: The columns were prepared in accordance with Example 3.
The bacteria (Sporosarcina pasteurii—CIP 66.21 Pasteur) were cultured in a culture medium (1 L of laboratory water) containing 10 g of yeast extract, 3 g of NaCl, 2.4 g of urea, 0.1 g of MgCl2 and 0.0128 g of NiCl2. When the bacteria are at the end of the exponential phase, the following are added to the culture medium: • either a source of calcium (10 mM Ca(NO3)2); • or chicory in a proportion of 4 or 8 g/L; • or a source of calcium (10 mM Ca(NO3)2) and chicory in a proportion of 4 or 8 g/L.
The whole was left to stir for one hour before being injected into the columns.
The injection conditions are identical to those of Example 3. All the experiments were carried out at 20° C.
The cumulative column inlet and outlet OD values are compared and expressed in the form of percentage loss of OD, which represents the degree of attachment of the bacteria in the column. FIG. 5 represents the degrees of attachment of the bacteria stimulated by the addition of chicory, of calcium salt or of both to the culture medium before injection.
The protocol is identical to that of Example 4.1, with the calcium ions (Ca(NO3)2) being replaced with magnesium ions (Mg(NO3)2).

[2] = tested on: S. pasteurii (CIP 66.21 Pasteur); test: Screening for sugars that can be assimilated, API strips (API 20 E and API 50CH); assay type: cell-based, Sporosarcina pasteurii; conditions: API strip analysis
From the text: The first step was to carry out a screening of the various sugars that exist, in order to identify that or those which is (are) assimilable and which stimulate EPS synthesis in Sporosarcina pasteurii, preferably without inhibiting urease synthesis.
For this, two types of API strips were used: API 20 E and API 50CH. These tests are in the form of microtubes containing dehydrated substrates and which are inoculated with a bacterial suspension.

Sporosarcina pasteurii = test: Culture with inulin/chicory replacing part of the yeast extract: attachment to glassware, growth, enzymatic activity; assay type: cell-based
From the text: In order to determine the amount of inulin necessary in order to act on the synthesis of urease and on the production of EPS in Sporosarcina pasteurii, a part of the nitrogenous carbon source (yeast extract) was replaced with chicory.

[3] = tested on: Sporosarcina pasteurri—CIP 66.21 Pasteur; test: Degree of attachment of bacteria to Fontainebleau sand columns, chicory in the culture medium (Example 3); assay type: cell-based, Sporosarcina pasteurii; conditions: media with versus without chicory
Description: The chicory used is powdered extract of freeze-dried chicory, derived from the root of Cichorium intibus and sold under the trade name “Chicorée soluble Leroux”. For this, two tests were carried out in parallel on columns:
The columns were made up of a PVC tube 63 mm in diameter and 200 mm in height, positioned between two PVC bases. One centimeter of filter sand was placed at the two ends and the whole of the column was made up with Fontainebleau sand tamped down under water by tapping. The Fontainebleau sand is the NE34-grade sand from SIFRACO. The injections were carried out from top to bottom. […]
Monitoring of the OD at the column outlet makes it possible to know the degree of attachment of the bacteria to the Fontainebleau sand. A calibration OD measurement was carried out beforehand on each of the media from which the bacteria were extracted in order to be free of differences in reading related to the medium itself. […]
Since the column porosity volume is 250 mL, the detection of the first bacteria at the column outlet is carried out after having injected 250 mL of culture medium. The graphic representation of the cumulative OD at the column inlet and at the column outlet makes it possible to readily visualize the degree of attachment of the bacteria to the granular substrate. […] The outlet ODs are also measured every minute. […]

With `O=[N+]([O-])[O-].O=[N+]([O-])[O-].[Ca+2]` [Ca(NO3)2] the “Degree of attachment (%)” value [1] was 49.5%.

Inulin was tested, and the “carbon source that can be assimilated by Sporosarcina pasteurii” value [2] was “can be assimilated”, the “adhesion of the bacteria to the laboratory glassware through the production of EPS” value (Sporosarcina pasteurii) was “demonstrated adhesion” and the “growth of the bacteria” value (Sporosarcina pasteurii) was “more rapid”. The “bacterial growth (inlet OD)” value [3] was “greater”.
